Measured values reported in ChEMBL document CHEMBL3804797, “Discovery of Aryl Sulfonamides as Isoform-Selective Inhibitors of NaV1.7 with Efficacy in Rodent Pain Models” (ACS Med Chem Lett, 2016).
The source made the active and inactive calls. No cut-off for these calls is given here.

Assays:
Rattus norvegicus [1] = test: Analgesic activity in rat assessed as reduction in formalin-induced late phase pain response at 100 mg/kg, ip dosed 2 hrs prior to formalin challenge measured over 10 to 40 mins by automated nociception analysis relative to formalin; assay type: functional; parameters: scale not given: the % may be the effect or the level left
Rattus norvegicus [2] = test: Analgesic activity in rat assessed as inhibition of aconitine-induced pain response at 100 mg/kg, ip dosed 2 hrs prior to aconitine challenge measured over 60 mins by automated nociception analysis relative to aconitine; assay type: functional; parameters: scale not given: the % may be the effect or the level left
Rattus norvegicus [3] = test: Analgesic activity in formalin-induced rat pain model assessed as free plasma concentration required to show efficacy at 30 to 100 mg/kg, ip dosed 2 hrs prior to aconitine challenge measured over 60 mins by automated nociception analysis; assay type: functional
Rattus norvegicus [4] = test: Analgesic activity in aconitine-induced rat pain model assessed as free plasma concentration required to show efficacy at 30 to 100 mg/kg, ip dosed 2 hrs prior to aconitine challenge measured over 60 mins by automated nociception analysis; assay type: functional
Mus musculus [5] = test: Analgesic activity in mouse assessed as reduction in CFA-induced cold allodynia at 30 mg/kg, ip administered 1 hr prior to acetone challenge on day 2 post CFA injection measured for 120 secs relative to vehicle control; assay type: functional; parameters: scale not given: the % may be the effect or the level left
Mus musculus [6] = test: Analgesic activity in mouse assessed as reduction in CFA-induced cold allodynia at 100 mg/kg, ip administered 1 hr prior to acetone challenge on day 2 post CFA injection measured for 120 secs relative to vehicle control; assay type: functional; parameters: scale not given: the % may be the effect or the level left
hERG (KCNH2) = hERG (KCNH2) (Homo sapiens, UniProt Q12809); test: Displacement of [3H] astemizole from human ERG channel at 5 uM; details: probe [3H] astemizole
Chain of hERG (KCNH2) (Q12809 whole entry): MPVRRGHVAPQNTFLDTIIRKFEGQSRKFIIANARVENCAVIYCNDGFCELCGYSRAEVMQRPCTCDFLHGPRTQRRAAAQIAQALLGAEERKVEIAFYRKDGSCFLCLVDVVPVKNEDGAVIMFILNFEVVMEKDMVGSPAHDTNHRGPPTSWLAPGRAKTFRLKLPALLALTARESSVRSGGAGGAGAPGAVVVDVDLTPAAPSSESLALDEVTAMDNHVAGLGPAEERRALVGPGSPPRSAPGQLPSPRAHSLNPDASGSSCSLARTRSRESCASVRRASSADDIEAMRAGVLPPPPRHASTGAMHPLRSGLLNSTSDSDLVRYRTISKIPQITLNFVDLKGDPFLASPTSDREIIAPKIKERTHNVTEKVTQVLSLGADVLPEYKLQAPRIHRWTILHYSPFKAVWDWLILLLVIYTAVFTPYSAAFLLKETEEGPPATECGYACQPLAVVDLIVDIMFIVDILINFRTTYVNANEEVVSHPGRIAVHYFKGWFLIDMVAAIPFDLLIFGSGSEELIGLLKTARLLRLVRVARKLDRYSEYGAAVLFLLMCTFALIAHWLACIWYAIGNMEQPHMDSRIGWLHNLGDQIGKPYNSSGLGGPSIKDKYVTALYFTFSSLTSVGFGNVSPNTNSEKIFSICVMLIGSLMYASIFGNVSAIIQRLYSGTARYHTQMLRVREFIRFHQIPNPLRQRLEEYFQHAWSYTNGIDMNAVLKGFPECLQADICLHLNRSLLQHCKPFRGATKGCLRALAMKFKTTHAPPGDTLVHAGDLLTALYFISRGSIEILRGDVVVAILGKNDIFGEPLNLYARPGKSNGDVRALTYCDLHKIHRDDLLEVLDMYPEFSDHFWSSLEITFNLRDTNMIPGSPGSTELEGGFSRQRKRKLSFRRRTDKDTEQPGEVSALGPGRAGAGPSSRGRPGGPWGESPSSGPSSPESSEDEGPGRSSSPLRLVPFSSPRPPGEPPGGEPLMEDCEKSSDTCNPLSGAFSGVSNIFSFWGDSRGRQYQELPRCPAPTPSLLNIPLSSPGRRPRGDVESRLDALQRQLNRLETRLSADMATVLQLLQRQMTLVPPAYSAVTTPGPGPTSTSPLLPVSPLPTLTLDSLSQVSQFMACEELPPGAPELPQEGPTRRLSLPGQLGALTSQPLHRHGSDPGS

[7] = target: Sodium channel protein type 9 subunit alpha (Homo sapiens, UniProt Q15858); test: Inhibition of full length human Nav1.7 channel expressed in HEK cells co-expressing human sodium channel subunit beta1 at holding potential -60 mV by automated voltage clamp analysis; assay type: cell-based, HEK293
Chain of Sodium channel protein type 9 subunit alpha (Q15858 whole entry): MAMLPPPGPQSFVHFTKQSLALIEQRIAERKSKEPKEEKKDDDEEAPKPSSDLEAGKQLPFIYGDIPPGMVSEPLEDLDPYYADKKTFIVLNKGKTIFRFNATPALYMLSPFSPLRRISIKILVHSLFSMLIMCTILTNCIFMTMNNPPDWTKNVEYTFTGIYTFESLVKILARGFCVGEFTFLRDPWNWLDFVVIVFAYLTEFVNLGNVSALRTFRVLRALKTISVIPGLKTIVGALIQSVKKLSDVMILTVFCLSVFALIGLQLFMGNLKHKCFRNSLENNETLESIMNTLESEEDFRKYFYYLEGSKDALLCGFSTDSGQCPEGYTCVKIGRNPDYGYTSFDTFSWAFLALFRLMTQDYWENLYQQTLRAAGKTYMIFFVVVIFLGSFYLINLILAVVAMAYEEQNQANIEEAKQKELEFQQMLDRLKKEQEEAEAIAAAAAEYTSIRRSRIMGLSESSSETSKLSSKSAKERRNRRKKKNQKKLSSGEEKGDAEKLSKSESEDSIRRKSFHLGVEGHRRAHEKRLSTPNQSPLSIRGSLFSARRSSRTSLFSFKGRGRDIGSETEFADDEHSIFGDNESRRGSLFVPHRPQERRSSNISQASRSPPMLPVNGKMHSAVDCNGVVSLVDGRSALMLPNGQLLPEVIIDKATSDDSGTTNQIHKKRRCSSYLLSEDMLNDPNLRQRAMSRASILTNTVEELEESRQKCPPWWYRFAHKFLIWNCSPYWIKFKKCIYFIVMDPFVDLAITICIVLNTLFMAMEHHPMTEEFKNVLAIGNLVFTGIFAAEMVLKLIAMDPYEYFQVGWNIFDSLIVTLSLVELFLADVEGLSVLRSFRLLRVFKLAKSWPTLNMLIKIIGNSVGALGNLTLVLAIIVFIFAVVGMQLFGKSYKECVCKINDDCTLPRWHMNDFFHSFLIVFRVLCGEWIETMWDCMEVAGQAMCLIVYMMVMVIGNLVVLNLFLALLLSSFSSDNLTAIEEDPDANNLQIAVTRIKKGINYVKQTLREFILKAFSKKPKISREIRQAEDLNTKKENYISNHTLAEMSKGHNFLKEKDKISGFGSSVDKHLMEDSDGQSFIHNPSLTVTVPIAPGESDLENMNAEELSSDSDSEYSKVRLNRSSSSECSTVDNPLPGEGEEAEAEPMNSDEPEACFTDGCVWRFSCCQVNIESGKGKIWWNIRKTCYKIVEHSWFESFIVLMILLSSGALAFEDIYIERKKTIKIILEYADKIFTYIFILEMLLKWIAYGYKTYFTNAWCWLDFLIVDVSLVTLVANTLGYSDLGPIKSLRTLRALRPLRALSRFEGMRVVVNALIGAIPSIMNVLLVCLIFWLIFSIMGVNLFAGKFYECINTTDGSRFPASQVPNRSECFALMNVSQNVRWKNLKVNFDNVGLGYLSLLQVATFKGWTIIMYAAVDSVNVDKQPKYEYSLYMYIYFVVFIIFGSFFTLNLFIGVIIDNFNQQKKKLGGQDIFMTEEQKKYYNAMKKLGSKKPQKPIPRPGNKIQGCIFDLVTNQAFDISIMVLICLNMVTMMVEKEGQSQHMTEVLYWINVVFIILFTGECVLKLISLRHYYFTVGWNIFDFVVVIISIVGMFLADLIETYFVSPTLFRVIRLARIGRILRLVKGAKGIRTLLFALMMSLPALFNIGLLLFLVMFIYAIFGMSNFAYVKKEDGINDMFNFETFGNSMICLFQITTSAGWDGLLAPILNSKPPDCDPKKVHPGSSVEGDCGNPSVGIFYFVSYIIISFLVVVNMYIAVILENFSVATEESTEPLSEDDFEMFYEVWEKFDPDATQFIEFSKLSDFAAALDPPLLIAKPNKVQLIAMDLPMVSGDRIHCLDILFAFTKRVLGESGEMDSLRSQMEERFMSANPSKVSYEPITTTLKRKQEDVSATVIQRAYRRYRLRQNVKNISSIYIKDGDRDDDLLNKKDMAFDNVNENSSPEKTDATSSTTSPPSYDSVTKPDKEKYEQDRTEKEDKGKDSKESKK

[8] = target: Sodium channel protein type 5 subunit alpha (Homo sapiens, UniProt Q14524); test: Inhibition of full length human Nav1.5 channel expressed in HEK cells co-expressing human sodium channel subunit beta1 at holding potential -60 mV by automated voltage clamp analysis; assay type: cell-based, HEK293
[9] = Selectivity ratio of IC50 for rat Nav1.7 to IC50 for human Nav1.7
Rattus norvegicus [10] = test: Analgesic activity in ip dosed rat assessed as inhibition of formalin-induced late phase pain response dosed 2 hrs prior to formalin challenge measured over 10 to 40 mins by automated nociception analysis; assay type: functional, organism-based
Rattus norvegicus [11] = test: Analgesic activity in rat assessed as inhibition of formalin-induced late phase pain response at 30 mg/kg,ip dosed 2 hrs prior to formalin challenge measured over 10 to 40 mins by automated nociception analysis; assay type: functional, organism-based
Rattus norvegicus [12] = test: Analgesic activity in rat assessed as delay in onset of formalin-induced pain response at 100 mg/kg,ip dosed 2 hrs prior to formalin challenge measured over 60 mins by automated nociception analysis; assay type: functional, organism-based
Rattus norvegicus [13] = test: Analgesic activity in rat assessed as inhibition of aconitine-induced pain response at 30 mg/kg, ip dosed 2 hrs prior to aconitine challenge measured over 60 mins by automated nociception analysis relative to control; assay type: functional, organism-based
Mus musculus [14] = test: Analgesic activity in mouse assessed as reduction in CFA-induced cold allodynia at 10 mg/kg, ip administered 1 hr prior to acetone challenge on day 2 post CFA injection measured for 120 secs relative to vehicle control; assay type: functional, organism-based
Mus musculus [15] = test: Analgesic activity in ip dosed mouse assessed as reduction in CFA-induced cold allodynia administered 1 hr prior to acetone challenge on day 2 post CFA injection measured for 120 secs relative to vehicle control; assay type: functional, organism-based
Cytochrome P450 2C9 = Cytochrome P450 2C9 (Homo sapiens, UniProt P11712); test: Inhibition of CYP2C9 in human liver microsomes using warfarin as substrate after 30 mins by LC/MS/MS analysis; assay type: ADME
Cytochrome P450 3A4 = Cytochrome P450 3A4 (Homo sapiens, UniProt P08684); test: Inhibition of CYP3A4 in human liver microsomes using testosterone/midazolam as substrate after 30 mins by LC/MS/MS analysis; assay type: ADME
Chain of Cytochrome P450 3A4 (P08684 whole entry): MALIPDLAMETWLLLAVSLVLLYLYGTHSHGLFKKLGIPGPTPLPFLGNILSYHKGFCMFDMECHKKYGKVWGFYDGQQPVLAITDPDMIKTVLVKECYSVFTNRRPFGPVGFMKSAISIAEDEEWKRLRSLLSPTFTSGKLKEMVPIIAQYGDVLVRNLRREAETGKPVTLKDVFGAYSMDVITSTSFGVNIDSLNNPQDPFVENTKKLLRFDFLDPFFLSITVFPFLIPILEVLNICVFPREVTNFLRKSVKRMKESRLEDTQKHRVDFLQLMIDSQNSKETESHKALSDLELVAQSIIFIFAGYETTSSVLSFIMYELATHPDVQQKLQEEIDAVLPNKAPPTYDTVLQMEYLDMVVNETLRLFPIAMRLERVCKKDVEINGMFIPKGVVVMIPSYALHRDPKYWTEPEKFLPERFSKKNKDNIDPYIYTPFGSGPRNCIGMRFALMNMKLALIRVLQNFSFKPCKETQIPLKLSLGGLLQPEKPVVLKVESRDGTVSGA

Cytochrome P450 1A2 = target: T1, Cytochrome P450 1A2 (Homo sapiens, UniProt P05177); test: Inhibition of CYP1A2 in human liver microsomes using phenacetin as substrate after 30 mins by LC/MS/MS analysis; assay type: ADME
T1 sequence (P05177 whole entry): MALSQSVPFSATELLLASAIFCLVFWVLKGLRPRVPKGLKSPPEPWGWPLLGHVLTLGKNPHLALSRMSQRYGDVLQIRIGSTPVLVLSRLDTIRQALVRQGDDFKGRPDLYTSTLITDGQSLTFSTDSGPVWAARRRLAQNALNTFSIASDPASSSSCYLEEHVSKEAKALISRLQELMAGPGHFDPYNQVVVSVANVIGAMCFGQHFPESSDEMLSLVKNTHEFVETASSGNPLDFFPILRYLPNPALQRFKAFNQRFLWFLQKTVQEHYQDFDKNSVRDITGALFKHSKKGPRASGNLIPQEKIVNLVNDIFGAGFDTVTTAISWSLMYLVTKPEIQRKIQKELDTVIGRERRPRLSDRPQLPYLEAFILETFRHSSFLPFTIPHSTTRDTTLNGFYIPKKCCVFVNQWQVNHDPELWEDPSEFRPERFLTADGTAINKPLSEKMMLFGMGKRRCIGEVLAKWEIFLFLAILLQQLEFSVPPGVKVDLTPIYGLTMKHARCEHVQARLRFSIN

Cytochrome P450 2D6 = Cytochrome P450 2D6 (Homo sapiens, UniProt P10635); test: Inhibition of CYP2D6 in human liver microsomes using dextromethorphan as substrate after 30 mins by LC/MS/MS analysis; assay type: ADME
Chain of Cytochrome P450 2D6 (P10635 whole entry): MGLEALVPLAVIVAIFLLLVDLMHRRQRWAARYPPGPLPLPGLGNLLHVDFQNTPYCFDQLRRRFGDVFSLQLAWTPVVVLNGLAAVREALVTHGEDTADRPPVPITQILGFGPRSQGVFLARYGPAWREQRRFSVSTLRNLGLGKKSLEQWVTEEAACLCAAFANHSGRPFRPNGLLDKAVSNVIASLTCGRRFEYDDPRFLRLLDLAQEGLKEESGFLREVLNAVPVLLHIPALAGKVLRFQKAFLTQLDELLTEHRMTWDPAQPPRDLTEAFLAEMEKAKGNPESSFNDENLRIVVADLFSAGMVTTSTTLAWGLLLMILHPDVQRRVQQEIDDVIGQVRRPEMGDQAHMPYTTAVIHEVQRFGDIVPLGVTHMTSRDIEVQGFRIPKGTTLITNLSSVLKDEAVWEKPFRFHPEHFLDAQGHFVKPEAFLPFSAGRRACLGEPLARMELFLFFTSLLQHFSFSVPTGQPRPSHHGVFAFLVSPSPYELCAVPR

Cytochrome P450 2C19 = Cytochrome P450 2C19 (Homo sapiens, UniProt P33261); test: Inhibition of CYP2C19 in human liver microsomes using mephenytoin as substrate after 30 mins by LC/MS/MS analysis; assay type: ADME
Chain of Cytochrome P450 2C19 (P33261 whole entry): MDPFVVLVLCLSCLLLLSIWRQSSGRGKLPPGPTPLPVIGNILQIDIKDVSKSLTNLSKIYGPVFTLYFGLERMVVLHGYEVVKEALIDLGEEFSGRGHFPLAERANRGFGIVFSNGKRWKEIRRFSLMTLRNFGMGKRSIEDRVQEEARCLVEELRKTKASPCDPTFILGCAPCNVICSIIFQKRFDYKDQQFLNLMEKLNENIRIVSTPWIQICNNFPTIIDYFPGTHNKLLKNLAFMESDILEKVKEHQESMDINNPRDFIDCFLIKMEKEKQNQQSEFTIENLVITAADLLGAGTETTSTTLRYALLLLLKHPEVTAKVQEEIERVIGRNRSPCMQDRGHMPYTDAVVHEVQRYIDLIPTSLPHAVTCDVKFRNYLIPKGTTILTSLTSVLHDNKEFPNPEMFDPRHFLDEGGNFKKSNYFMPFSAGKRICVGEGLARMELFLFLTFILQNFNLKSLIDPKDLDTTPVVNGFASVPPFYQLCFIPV

For `Nc1noc2ccc(-c3cc(Cl)ccc3Oc3cc(F)c(S(=O)(=O)[N-]c4ncns4)cc3F)cc12.[Na+]`, the Activity (Rattus norvegicus [1]) was 60%, the Activity (Rattus norvegicus [2]) was 43% and the “Cp(f)” value (Rattus norvegicus [3]) was 250 nM. For the same compound, the “Cp(f)” value (Rattus norvegicus [4]) was 250 nM, the Activity (Mus musculus [5]) was 59% and the Activity (Mus musculus [6]) was 83%.

With `Nc1noc2ccc(-c3cc(Cl)ccc3Oc3cc(F)c(S(=O)(=O)Nc4cscn4)cc3F)cc12` the inhibition at 5 µM (hERG (KCNH2)) was less than 11%.

With `O=S(=O)(Nc1ncns1)c1cc(F)c(Oc2ccc(Cl)cc2-c2cccc3nccn23)cc1F` the IC50 [7] was 0.017 µM, the IC50 [8] was greater than 10 µM and the inhibition at 5 µM (hERG (KCNH2)) was less than 11%.

For `Nc1noc2ccc(-c3cc(Cl)ccc3Oc3cc(F)c(S(=O)(=O)Nc4ncns4)cc3F)cc12`, the Ratio IC50 [9] was greater than 60, the Activity (Rattus norvegicus [10]) was “Dose-dependent effect” and the Activity (Rattus norvegicus [11]) was “inactive”. The Activity (Rattus norvegicus [12]) was “Active”, the Activity (Rattus norvegicus [13]) was “inactive” and the Activity (Mus musculus [14]) was “inactive”. For the same compound, the Activity (Mus musculus [15]) was “Dose-dependent effect”.

With `Nc1noc2ccc(-c3cc(Cl)ccc3Oc3cc(F)c(S(=O)(=O)Nc4ncccn4)cc3F)cc12` the inhibition at 5 µM (hERG (KCNH2)) was less than 11%, the IC50 (Cytochrome P450 2C9) was 0.57 µM and the IC50 (Cytochrome P450 3A4) was greater than 10 µM. The IC50 (Cytochrome P450 1A2) was greater than 10 µM, the IC50 (Cytochrome P450 2D6) was greater than 10 µM and the IC50 (Cytochrome P450 2C19) was greater than 10 µM.
